Results reported in article PMC3909264, “A Novel Acylaminoimidazole Derivative, WN1316, Alleviates Disease Progression via Suppression of Glial Inflammation in ALS Mouse Model” (PLoS ONE, 2014).
Where a name gives a salt, the structure may show the parent alone.

Tests used:
ALS(SOD1^G93A) mice = assay: Post-onset oral administration in ALS(SOD1^G93A) mice: motor function, body weight, survival; assay type: in vivo
Experimental: In addition, congenic ALS(SOD1^G93A) transgenic mice on a B6 background were also generated by crossing B6SJL-TgN(SOD1-G93A)1Gur [ALS(SOD1^G93A)] males (Jackson Laboratory) to B6 females for more than 11 generations. Both congenic ALS mice were used throughout this study.
The lines were maintained as hemizygotes by mating ALS(SOD1^H46R) and ALS(SOD1^G93A) males with B6 females. Offspring were genotyped by PCR using genomic DNA from tail tissue. Mice were housed at 23°C with a 12 h light/dark cycle, in which water and food was available ad libitum. The condition of each animal was monitored weekly initially and then daily after disease onset. The lifespan was determined by the days from disease onset to the endpoint, in which mouse lost active and/or spontaneous movement. All animal experimental procedures were approved by the Institutional Animal Care and Use Committee at Tokai University.
WN1316 was dissolved in MQ water, and diluted with physiological saline. ALS(SOD1^H46R) transgenic mice were given WN1316 via gastric tube (CAT.No.4202, Fuchigami) at a dose of either 1 µg, 10 µg or 100 µg/5 ml/kg body weight. ALS(SOD1^G93A) transgenic mice were given 10 µg/kg WN1316. Animals simultaneously treated with physiological saline (vehicle group, 5 ml/kg) were used as controls.
To determine the onset of motor dysfunction in ALS(SOD1^H46R) transgenic mice, we adopted a balance beam test as previously described in detail. To determine the onset of motor dysfunction in ALS(SOD1^G93A) transgenic mice, we adopted both balance beam and grip strength tests. Grip strength test was assessed using a traction meter (BrainScience Idea Co., Ltd.). Each mouse was given three trials, and the highest limb strength score was recorded. For ALS(SOD1^G93A) transgenic mice, grip strength tests were started at 11 weeks of age and performed twice a week until an over 20% reduction compared with the initial limb strength score at 11 weeks of age was observed. Finally, a grade 3 in the balance beam test and over 20% reduction of limb strength score were defined as the sign of the disease onset in ALS(SOD1^G93A) transgenic mice.
The gross phenotypes were measured blindly. The body weight of each mouse was measured weekly initially and then daily after disease onset. Mice were assessed for gross behavior every week from 12 weeks of age in ALS(SOD1^H46R) mice and from 11 weeks of age in ALS(SOD1^G93A) mice until the endpoint. In particular, hind limb movement and rearing behavior of each animal were monitored weekly from 12 weeks of age until the end stage. The days from the disease onset to the endpoint were counted individually as the survival interval.
We assessed motor performance and coordination, and balance in the mice by the balance-beam test, vertical pole test, and footprint analysis as previously described in detail and grip strength test as described above. In brief, the balance-beam test was performed every day after the onset until mice were unable to stay on the bar. […] The highest vertical ascending distance was scored. […]
To evaluate the spontaneous motor activities in mice, we conducted cage activity and rearing performance tests by using SUPERMEX with infrared ray sensor monitor (Muromachi Kikai). Both cage activity and rearing performance were monitored for 2 consecutive nights starting at 18 weeks and 21 weeks of age in ALS(SOD1^H46R) mice and at 13 weeks, 17 weeks and 21 weeks of age in ALS(SOD1^G93A) mice. […]

[1] = Complexing with protein in rat serum; assay type: in vitro ADME; conditions: rat sera, unpublished data
[2] = system: total GSH in differentiated SH-SY5Y cells; assay: Measurement of intracellular glutathione (GSH/GSSG-Glo); assay type: cell-based, human; conditions: 1–20 µM, 8 h
Experimental: Differentiated SH-SY5Y cells were treated with various concentrations of WN1316 (1–20 µM) or vehicle control (DMSO). After 8 h incubation, the cellular oxidized (GSSG) and reduced glutathione (GSH) levels were measured using the GSH/GSSG-Glo™ Assay kit (Promega) according to the manufacturer’s instructions. GSH and GSSG levels were normalized to protein concentrations.

Cc1cc(C)c(N(C)CC(=O)Nc2nc(-c3ccccn3)c[nH]2)c(C)c1 [WN1316, 2-[mesityl(methyl)amino]-N-[4-(pyridin-2-yl)-1H-imidazol-2-yl] acetamide trihydrochloride]
impact including weight gain or loss (ALS(SOD1^G93A) mice; 10 µg/kg/day p.o.): No impact | post-onset life span (survival interval) (ALS(SOD1^G93A) mice; 10 µg/kg/day p.o., n = 8, mean ± SD (vehicle 57.9±6.0)): 66.1 ± 12.0 days | balance beam test: duration from onset to the day the mouse was unable to stay on the bar (ALS(SOD1^G93A) mice; 10 µg/kg/day p.o., n = 8, mean ± SEM (vehicle 39.3±2.1)): 47.1 ± 3.0 days | prolongation of post-onset survival (ALS(SOD1^G93A) mice; 10 µg/kg/day p.o., vs vehicle): 14% | motor performance by footprint analysis (ALS(SOD1^G93A) mice; 10 µg/kg/day, 20 weeks of age (late symptomatic stage), vs vehicle): sustained motor performance | protein complexing in serum [1]: complexes with protein | total GSH level [2]: upregulation of total GSH level
